“Also recorded” adds a separate entry of the source.
How the values were obtained:
Assay type in all cases: physicochemical
[1] = Crystallization solvents list and observations (solubility of the compound in solvents); details: about 20 mg in 4 ml vial, about 40° C.
Protocol: About 20 mg of (4R)-1-[4-(2-chloro-5-fluorobenzoyl)amino-3-methoxybenzoyl]-1,2,3,5-tetrahydro-spiro[4H-1-benzazepine-4,1′-[2]cyclopentene]-3′-carboxylic acid was transferred into a 4 ml vial. Solvent was added in the vial to make the solution or suspension depending on solubility at about 40° C. on hot plate. The vial was removed from hot plate and kept at room temperature. The caps were put on without sealing. All the vials were placed in the hood for slow evaporation. After the solvent evaporated, the solid was investigated using PXRD, DSC, TGA, and microscope.

[2] = Water slurry study of polymorph stability
Protocol: Form 6 was crystallized from acetone, butanol, ethanol, isopropyl alcohol, hexane, and water. It melted with a peak at about 203-204° C. and a heat of fusion of about 75-80 J/g.

[3] = Solid form conversion on heating/desolvation via DSC; details: conversions occurred via DSC, upon heating/desolvation
Protocol: DSC analysis of each sample was performed using a Q100 Differential Scanning Calorimeter (TA Instruments, New Castle, Del., U.S.A.), which uses Thermal Advantage™ version 4.1.0 for operating instrument. In addition, the analysis software used was Universal Analysis 2000 for Windows 2000/XP, version 4.1D; Build 4.1.0.16 (Copyright © 1998-2004 TA Instruments-Water LLC).
For all of the DSC analyses, an aliquot of a sample was weighed into either a standard aluminium pan (Pan part #900786.091; lid part #900779.901) or a hermetic aluminium pan (Pan part #900793.901; lid part #900794.901 (TA Instruments, New Castle Del. USA)). Non-solvated samples were loaded into standard pans and were sealed either by crimping for dry samples or press fitting for wet samples (such as slurries). Solvated samples (including hydrates) were loaded into hermetic pans and hermetically sealed. The sample pan was loaded into the Q100 Differential Scanning Calorimeter, which is equipped with an autosampler, and a thermogram was obtained by individually heating the same using the control software at a rate of 10° C./minute from Tmin (typically 25° C.) to Tmax (typically 275° C.) using an empty aluminium pan as a reference. Dry nitrogen (compressed nitrogen, grade 4.8 (BOC Gases, Murray Hill, N.J. USA)) was used as a sample purge gas and was set at a flow rate of 50 mL/minute. Thermal transitions were viewed and analyzed using the analysis software provided with the instrument.
At least 10 forms were discovered based on distinguished PXRD patterns (all conversions occurred via DSC; such conversions can also occur under ambient conditions at a slower pace).

COc1cc(C(=O)N2CC[C@]3(C=C(C(=O)O)CC3)Cc3ccccc32)ccc1NC(=O)c1cc(F)ccc1Cl [Compound of Formula (I), (4R)-1-[4-(2-chloro-5-fluorobenzoyl)amino-3-methoxybenzoyl]-1,2,3,5-tetrahydro-spiro[4H-1-benzazepine-4,1′-[2]cyclopentene]-3′-carboxylic acid]
Observation (solubility) ([1]; 1,4-Dioxane): Good solubility
Observation (solution or suspension) ([1]; 1,4-Dioxane): Solution
Observation (solubility) ([1]; Acetone): Good solubility
Observation (solution or suspension) ([1]; Acetone): Solution
Observation (solubility) ([1]; Acetonitrile): Good solubility
Observation (solution or suspension) ([1]; Acetonitrile): Solution
Observation (solubility) ([1]; Butanol): Medium solubility
Observation (solution or suspension) ([1]; Butanol): Solution
Observation (solubility) ([1]; Dichloromethane): Good solubility
Observation (solution or suspension) ([1]; Dichloromethane): Solution
Observation (solubility) ([1]; Ethanol): Medium solubility
Observation (solution or suspension) ([1]; Ethanol): Solution
Observation (solubility) ([1]; Ethyl acetate): Good solubility
Observation (solution or suspension) ([1]; Ethyl acetate): Solution
Observation (solubility) ([1]; Hexane): Poor solubility
Observation (solution or suspension) ([1]; Hexane): Suspension
Observation (solubility) ([1]; Isopropyl alcohol): Medium solubility
Observation (solution or suspension) ([1]; Isopropyl alcohol): Solution
Observation (solubility) ([1]; Methanol): Medium solubility
Observation (solution or suspension) ([1]; Methanol): Solution
Observation (solubility) ([1]; Nitromethane): Good solubility
Observation (solution or suspension) ([1]; Nitromethane): Solution
Observation (solubility) ([1]; Toluene): Solution is not clear
Observation (solution or suspension) ([1]; Toluene): Precipitation
Observation (solubility) ([1]; Water): Poor wetability
Observation (solution or suspension) ([1]; Water): Suspension

COc1cc(C(=O)N2CC[C@]3(C=C(C(=O)O)CC3)Cc3ccccc32)ccc1NC(=O)c1cc(F)ccc1Cl [Form 1, (4R)-1-[4-(2-chloro-5-fluorobenzoyl)amino-3-methoxybenzoyl]-1,2,3,5-tetrahydro-spiro[4H-1-benzazepine-4,1′-[2]cyclopentene]-3′-carboxylic acid]
Solid form conversion in water slurry ([2]; equal amount of forms 1, 5 and 6 mixed in water for more than 76 hours): converted to form 6

COc1cc(C(=O)N2CC[C@]3(C=C(C(=O)O)CC3)Cc3ccccc32)ccc1NC(=O)c1cc(F)ccc1Cl [Form 2, (4R)-1-[4-(2-chloro-5-fluorobenzoyl)amino-3-methoxybenzoyl]-1,2,3,5-tetrahydro-spiro[4H-1-benzazepine-4,1′-[2]cyclopentene]-3′-carboxylic acid]
Solid form conversion (physical stability) ([3]; listed as 2): (solvate converted to form 6)

COc1cc(C(=O)N2CC[C@]3(C=C(C(=O)O)CC3)Cc3ccccc32)ccc1NC(=O)c1cc(F)ccc1Cl [Form 3, (4R)-1-[4-(2-chloro-5-fluorobenzoyl)amino-3-methoxybenzoyl]-1,2,3,5-tetrahydro-spiro[4H-1-benzazepine-4,1′-[2]cyclopentene]-3′-carboxylic acid]
Solid form conversion (physical stability) [3]: converted to form 5
Solid form conversion (physical stability) ([3]; listed as 3): (solvate converted to form 5)

COc1cc(C(=O)N2CC[C@]3(C=C(C(=O)O)CC3)Cc3ccccc32)ccc1NC(=O)c1cc(F)ccc1Cl [Form 4, (4R)-1-[4-(2-chloro-5-fluorobenzoyl)amino-3-methoxybenzoyl]-1,2,3,5-tetrahydro-spiro[4H-1-benzazepine-4,1′-[2]cyclopentene]-3′-carboxylic acid]
Solid form conversion (physical stability) ([3]; listed as 4): (solvate converted to an amorphous form)

COc1cc(C(=O)N2CC[C@]3(C=C(C(=O)O)CC3)Cc3ccccc32)ccc1NC(=O)c1cc(F)ccc1Cl [Form 6, (4R)-1-[4-(2-chloro-5-fluorobenzoyl)amino-3-methoxybenzoyl]-1,2,3,5-tetrahydro-spiro[4H-1-benzazepine-4,1′-[2]cyclopentene]-3′-carboxylic acid]
Thermodynamic stability among polymorphs ([2]; from highest melting temperature and heat of fusion, confirmed by water slurry study): thermodynamically most stable polymorph

COc1cc(C(=O)N2CC[C@]3(C=C(C(=O)O)CC3)Cc3ccccc32)ccc1NC(=O)c1cc(F)ccc1Cl [Form 7, (4R)-1-[4-(2-chloro-5-fluorobenzoyl)amino-3-methoxybenzoyl]-1,2,3,5-tetrahydro-spiro[4H-1-benzazepine-4,1′-[2]cyclopentene]-3′-carboxylic acid]
Solid form conversion (physical stability) [3]: converted to form 1; also recorded: ultimately to form 6
Solid form conversion (physical stability) ([3]; listed as 7): (solvate converted to form 1)
Solid form conversion (physical stability) ([3]; listed as form 7): converted to form 1

COc1cc(C(=O)N2CC[C@]3(C=C(C(=O)O)CC3)Cc3ccccc32)ccc1NC(=O)c1cc(F)ccc1Cl [Form 8, (4R)-1-[4-(2-chloro-5-fluorobenzoyl)amino-3-methoxybenzoyl]-1,2,3,5-tetrahydro-spiro[4H-1-benzazepine-4,1′-[2]cyclopentene]-3′-carboxylic acid]
Solid form conversion (physical stability) [3]: converted to form 1
Solid form conversion (physical stability) ([3]; listed as 8): (solvate converted to form 1)
Solid form conversion (physical stability) ([3]; listed as form 8): converted to form 1
